Measured values published in US20260216347A1, “Substituted Imidazo-Based Compounds as Ligand Directed Degraders of IRAK3” (Celgene Corporation, priority 2022, published 2026).

Target: T1, IRAK3-ePL (Homo sapiens, UniProt Q9Y616)
T1 construct: expressed in transfected cells; host or cells: 293T CRBN OE/GSPT1 G575N KI cells, lentiviral transduction, puromycin selected
Assay: IRAK3-ePL overexpressing degradation assay (InCELL Hunter luminescence, dose response)
Format: cell-based
Conditions: for IRAK3 ePL degradation Ymin: lowest percentage of target protein remaining following compound treatment; for DC50: read-out: IRAK3 ePL degradation EC50
Outline: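 Lenti-X 293T CRBN/GSPT1 G575N cells stably expressing IRAK3-ePL (5,000/well) treated overnight at 37° C with 10-point 3-fold dilutions from 10 μM, 0.2% DMSO. InCELL Hunter luminescence, background subtracted using Ataluren wells and normalized to DMSO; EC50 from four-parameter logistic fit.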

IRAK3 ePL degradation Ymin [%]	DC50 [nM]	SMILES
29	1.7	Cc1cc(-c2cnc(Nc3cnn([C@H]4CC[C@@H](CN5CCN(c6ccc(C7CCC(=O)NC7=O)cc6)CC5)CC4)c3)c3nccn23)c(F)cc1F (relative stereo) [Compound 71, 3-(4-(4-(((cis)-4-(4-((5-(2,4-difluoro-5-methylphenyl)imidazo[1,2-a]pyrazin-8-yl)amino)-1H-pyrazol-1-yl)cyclohexyl)methyl)piperazin-1-yl)phenyl) piperidine-2,6-dione]
31	39	Cc1cccc(-c2cnc(Nc3cnn(C4CCN(CC(=O)N5CCN(c6ccc7c(c6)C(=O)N(C6CCC(=O)NC6=O)C7=O)CC5)CC4)c3)c3nccn23)c1 (stereo not drawn) [Compound 1, 2-(2,6-dioxopiperidin-3-yl)-5-(4-(2-(4-(4-((5-(m-tolyl)imidazo[1,2-a]pyrazin-8-yl)amino)-1H-pyrazol-1-yl)piperidin-1-yl)acetyl)piperazin-1-yl)isoindoline-1,3-dione]
15	3	Cc1cccc(-c2cnc(Nc3cnn(C4CCN(CCN5CCN(c6ccc7c(c6)C(=O)N(C6CCC(=O)NC6=O)C7=O)CC5)CC4)c3)c3nccn23)c1 (stereo not drawn) [Compound 2, 2-(2,6-dioxopiperidin-3-yl)-5-(4-(2-(4-(4-((5-(m-tolyl)imidazo[1,2-a]pyrazin-8-yl)amino)-1H-pyrazol-1-yl)piperidin-1-yl)ethyl)piperazin-1-yl)isoindoline-1,3-dione]
15	3	Cc1cccc(-c2cnc(Nc3cnn(C4CCN(CCCCN5CCN(c6ccc(C7CCC(=O)NC7=O)cc6)CC5)CC4)c3)c3nccn23)c1 (stereo not drawn) [Compound 3, 3-(4-(4-(4-(4-(4-((5-(m-tolyl)imidazo[1,2-a]pyrazin-8-yl)amino)-1H-pyrazol-1-yl)piperidin-1-yl)butyl)piperazin-1-yl)phenyl) piperidine-2,6-dione]
13	4	Cc1cccc(-c2cnc(Nc3cnn(C4CCN(CCCN5CCN(c6ccc(C7CCC(=O)NC7=O)cc6)CC5)CC4)c3)c3nccn23)c1 (stereo not drawn) [Compound 4, 3-(4-(4-(3-(4-(4-((5-(m-tolyl)imidazo[1,2-a]pyrazin-8-yl)amino)-1H-pyrazol-1-yl)piperidin-1-yl)propyl)piperazin-1-yl)phenyl) piperidine-2,6-dione]
17	22	Cc1cc(-c2cnc(Nc3cnn(C4CCN(CC(=O)N5CCN(c6ccc7c(c6)C(=O)N(C6CCC(=O)NC6=O)C7=O)CC5)CC4)c3)c3nccn23)c(F)cc1F (stereo not drawn) [Compound 6, 5-(4-(2-(4-(4-((5-(2,4-difluoro-5-methylphenyl)imidazo[1,2-a]pyrazin-8-yl)amino)-1H-pyrazol-1-yl)piperidin-1-yl)acetyl)piperazin-1-yl)-2-(2,6-dioxopiperidin-3-yl)isoindoline-1,3-dione]
14	0.6	Cc1cc(-c2cnc(Nc3cnn(C4CCN(CCN5CCN(c6ccc(C7CCC(=O)NC7=O)cc6)C[C@@H]5C)CC4)c3)c3nccn23)c(F)cc1F (stereo partly drawn) [Compound 7, 3-(4-((S)-4-(2-(4-(4-((5-(2,4-difluoro-5-methylphenyl)imdazo [1,2-a]pyrazin-8-yl)amino)-1H-pyrazol-1-yl)piperidin-1-yl)ethyl)-3-methylpiperazin-1-yl)phenyl) piperidine-2,6-dione]
18	0.5	Cc1cc(-c2cnc(Nc3cnn(C4CCN(CCN5CCN(c6ccc(C7CCC(=O)NC7=O)cc6)CC5)CC4)c3)c3nccn23)c(F)cc1F (stereo not drawn) [Compound 8, 3-(4-(4-(2-(4-(4-((5-(2,4-difluoro-5-methylphenyl)imidazo[1,2-a]pyrazin-8-yl)amino)-1H-pyrazol-1-yl)piperidin-1-yl)ethyl)piperazin-1-yl)phenyl)piperidine-2,6-dione]
14	0.5	Cc1cc(-c2cnc(Nc3cnn(C4CCN(CCN5CCN(c6ccc(C7CCC(=O)NC7=O)cc6)C[C@H]5C)CC4)c3)c3nccn23)c(F)cc1F (stereo partly drawn) [Compound 9, 3-(4-((R)-4-(2-(4-(4-((5-(2,4-difluoro-5-methylphenyl)imdazo [1,2-a]pyrazin-8-yl)amino)-1H-pyrazol-1-yl)piperidin-1-yl)ethyl)-3-methylpiperazin-1-yl)phenyl) piperidine-2,6-dione]
22	19	Cc1cc(-c2cnc(Nc3cnn(C4CCN(CC(=O)N5CCN(c6ccc7c(c6)CN(C6CCC(=O)NC6=O)C7=O)CC5)CC4)c3)c3nccn23)c(F)cc1F (stereo not drawn) [Compound 10, 3-(5-(4-(2-(4-(4-((5-(2,4-difluoro-5-methylphenyl)imidazo[1,2-a]pyrazin-8-yl)amino)-1H-pyrazol-1-yl)piperidin-1-yl)acetyl)piperazin-1-yl)-1-oxoisoindolin-2-yl)piperidine-2,6-dione]
22	4	Cc1cc(-c2cnc(Nc3cnn([C@H]4CC[C@H](CCN5CCN(c6ccc(C7CCC(=O)NC7=O)cc6)CC5)CC4)c3)c3nccn23)c(F)cc1F (stereo partly drawn) [Compound 11, 3-(4-(4-(2-((trans)-4-(4-((5-(2,4-difluoro-5-methylphenyl)imidazo[1,2-a]pyrazin-8-yl)amino)-1H-pyrazol-1-yl)cyclohexyl)ethyl)piperazin-1-yl)phenyl)piperidine-2,6-dione]
14	3	Cc1cc(-c2ccc(Nc3cnn(C4CCN(CCN5CCN(c6ccc(C7CCC(=O)NC7=O)cc6)CC5)CC4)c3)c3nccn23)c(F)cc1F (stereo not drawn) [Compound 12, 3-(4-(4-(2-(4-(4-((5-(2,4-difluoro-5-methylphenyl)imdazo [1,2-a]pyridin-8-yl)amino)-1H-pyrazol-1-yl)piperidin-1-yl)ethyl)piperazin-1-yl)phenyl) piperidine-2,6-dione]
13	0.86	Cc1cc(-c2cnc(Nc3cnn(C4CCN(CCN5[C@H](C)CN(c6ccc(C7CCC(=O)NC7=O)cc6)C[C@@H]5C)CC4)c3)c3nccn23)c(F)cc1F (stereo partly drawn) [Compound 13, 3-(4-((3S,5R)-4-(2-(4-(4-((5-(2,4-difluoro-5-methylphenyl)imdazo [1,2-a]pyrazin-8-yl)amino)-1H-pyrazol-1-yl)piperidin-1-yl)ethyl)-3,5-dimethylpiperazin-1-yl)phenyl) piperidine-2,6-dione]
15	1.1	Cc1cc(-c2cnc(Nc3cnn([C@H]4CC[C@@H](CCN5CCN(c6ccc(C7CCC(=O)NC7=O)cc6)CC5)CC4)c3)c3nccn23)c(F)cc1F (stereo partly drawn) [Compound 14, 3-(4-(4-(2-((cis)-4-(4-((5-(2,4-difluoro-5-methylphenyl)imidazo[1,2-a]pyrazin-8-yl)amino)-1H-pyrazol-1-yl)cyclohexyl)ethyl)piperazin-1-yl)phenyl) piperidine-2,6-dione]
33	21	Cc1cccc(-c2cnc(Nc3cnn(C4CCN(CC(=O)N5CCN(c6ccc7c(c6)C(=O)N(C6CCC(=O)NC6=O)C7)CC5)CC4)c3)c3nccn23)c1 (stereo not drawn) [Compound 16, 3-(1-oxo-6-(4-(2-(4-(4-((5-(m-tolyl)imidazo[1,2-a]pyrazin-8-yl)amino)-1H-pyrazol-1-yl)piperidin-1-yl)acetyl)piperazin-1-yl)isoindolin-2-yl)piperidine-2,6-dione]
